Measured values from paper PMC7065771, “Dietary supplementation of recombinant antimicrobial peptide Epinephelus lanceolatus piscidin improves growth performance and immune response in Gallus gallus domesticus” (PLoS ONE, 2020).

Columns and labels:
Streptococcus equinus = type: cell-based; conditions: 24 h
Experimental: (§1) All assays were performed in triplicate.

[1] = test system: Staphylococcus aureus subsp; type: cell-based; conditions: 24 h
Experimental: as §1

Escherichia coli = type: cell-based; conditions: 24 h
Experimental: as §1

Klebsiella oxytoca = type: cell-based; conditions: 24 h
Experimental: as §1

Streptococcus agalactiae = type: cell-based; conditions: 24 h
Experimental: as §1

[2] = test system: Riemerella anatipestifer (RA9); test: Inhibition zone (disk diffusion) assay; type: cell-based; conditions: disk paper on culture plate 16 h at 37°C, rEP: shake-flask supernatant 120 h after induction, maximum carrying capacity, ampicillin 2 mg/ml, 10 μl, read-out: Inhibition zone diameter
Experimental: as §1
(§2) The antimicrobial activity of rEP from flask cultures was evaluated by determining its ability to prevent growth of Gram-positive and Gram-negative bacteria with a disk diffusion assay. […] The most susceptible pathogens were R. anatipestifer (CFC27) and R. anatipestifer (CFC437) (Table 3a). Next, we investigated the thermostability of flask-fermented rEP with regard to its toxicity toward S. aureus (BCRC 10780), E. coli (BCRC 10675) and P. aeruginosa (ATCC 19660). Empty vector with no insert in P. pastoris was used as a control. Thermostability was measured by disk diffusion assay after cultures were incubated for 5 min at 40, 60, 80, or 100°C (Table 3b).

[3] = test system: Riemerella anatipestifer (CFC437); test: Inhibition zone (disk diffusion) assay; type: cell-based; conditions: Riemerella anatipestifer; disk paper 16 h at 37°C; ampicillin 2 mg/ml, 10 μl; read-out: Inhibition zone diameter
Experimental: as §1, §2

[4] = test system: Riemerella anatipestifer (CFC363); test: Inhibition zone (disk diffusion) assay; type: cell-based; conditions: disk paper on culture plate 16 h at 37°C, rEP: shake-flask supernatant 120 h after induction, maximum carrying capacity, ampicillin 2 mg/ml, 10 μl, read-out: Inhibition zone diameter
Experimental: as §1, §2

[5] = test system: Riemerella anatipestifer (CFC27); test: Inhibition zone (disk diffusion) assay; type: cell-based; conditions: Riemerella anatipestifer; disk paper 16 h at 37°C; ampicillin 2 mg/ml, 10 μl; read-out: Inhibition zone diameter
Experimental: as §1, §2

[6] = test system: Riemerella anatipestifer (RA3); test: Inhibition zone (disk diffusion) assay; type: cell-based; conditions: Riemerella anatipestifer; disk paper 16 h at 37°C; ampicillin 2 mg/ml, 10 μl; read-out: Inhibition zone diameter
Experimental: as §1, §2

[7] = test system: Escherichia coli (BCRC 10675); test: Inhibition zone (disk diffusion) assay; type: cell-based; conditions: Escherichia coli, BCRC10675; disk paper on culture plate 16 h at 37°C; rEP: shake-flask supernatant 120 h after induction, maximum carrying capacity; ampicillin 2 mg/ml, 10 μl; read-out: Inhibition zone diameter
Experimental: as §1, §2

[8] = test system: Pseudomonas aeruginosa (ATCC 19660); test: Inhibition zone (disk diffusion) assay; type: cell-based; conditions: Pseudomonas aeruginosa, ATCC19660; disk paper on culture plate 16 h at 37°C; rEP: shake-flask supernatant 120 h after induction, maximum carrying capacity; ampicillin 2 mg/ml, 10 μl; read-out: Inhibition zone diameter
Experimental: as §1, §2

[9] = test system: Staphylococcus aureus (BCRC 10780); test: Inhibition zone (disk diffusion) assay; type: cell-based; conditions: Staphylococcus aureus, BCRC10780; disk paper on culture plate 16 h at 37°C; rEP: shake-flask supernatant 120 h after induction, maximum carrying capacity; ampicillin 2 mg/ml, 10 μl; read-out: Inhibition zone diameter
Experimental: as §1, §2

[10] = test system: Riemerella anatipestifer (RA16); test: Inhibition zone (disk diffusion) assay; type: cell-based; conditions: disk paper on culture plate 16 h at 37°C, rEP: shake-flask supernatant 120 h after induction, maximum carrying capacity, ampicillin 2 mg/ml, 10 μl, read-out: Inhibition zone diameter
Experimental: as §1, §2

MRSA = type: cell-based, Methicillin-resistant Staphylococcus aureus; conditions: 24 h
Experimental: as §1

Vibrio parahaemolyticus = conditions: synthetic peptide, microbroth dilution series, Gram -
Pseudomonas aeruginosa = type: cell-based; conditions: 24 h
Experimental: as §1

Compound | MIC (Streptococcus equinus) | MIC [1] | MIC (Escherichia coli) | MIC (Klebsiella oxytoca) | MIC (Streptococcus agalactiae) | zone of inhibition at 2000 µg/mL [2] | zone of inhibition at 2000 µg/mL [3] | zone of inhibition at 2000 µg/mL [4] | zone of inhibition at 2000 µg/mL [5] | zone of inhibition at 2000 µg/mL [6] | zone of inhibition at 2000 µg/mL [7] | zone of inhibition at 2000 µg/mL [8] | zone of inhibition at 2000 µg/mL [9] | zone of inhibition at 2000 µg/mL [10] | MIC (MRSA) | MIC (Vibrio parahaemolyticus) | MIC (Pseudomonas aeruginosa)
Ac-CIMKHLRNLWNGAKAIYNGAKAGWTEFK-NH2 [G6496-t1] | 30 µg/mL | 60 µg/mL | 60 µg/mL | 60 µg/mL | 60 µg/mL | – | – | – | – | – | – | – | – | – | – | – | –
CC1(C)S[C@@H]2[C@H](NC(=O)[C@H](N)c3ccccc3)C(=O)N2[C@H]1C(=O)O [Ampicillin, reference compound] | – | – | – | – | – | 31 ± 0.8 mm | 15 ± 4.5 mm | 32 ± 2.3 mm | 43 ± 1.1 mm | 12 ± 2.5 mm | 13.6 ± 0.5 mm | 11.6 ± 0.5 mm | 14.6 ± 0.5 mm | 30 ± 1.2 mm | – | – | –
Ac-GFIFHIIKGLFHAGRMIHGLVNRRRHRHGMEE-NH2 [G6498-t1] | 11.2 µg/mL | 90 µg/mL | 22.5 µg/mL | 45 µg/mL | 90 µg/mL | – | – | – | – | – | – | – | – | – | 5.6 µg/mL | 5.6 µg/mL | 45 µg/mL
Ac-CFFRHIKSFWRGAKAIFRGARQGWRE-NH2 [G6497-t1] | 15 µg/mL | 60 µg/mL | 30 µg/mL | 30 µg/mL | 60 µg/mL | – | – | – | – | – | – | – | – | – | 60 µg/mL | 60 µg/mL | –
